Our source for the LD50 values is EP1228058B1, “BENZOPYRANYL GUANIDINE DERIVATIVES, PROCESS FOR PREPARATION THEREOF, AND PHARMACEUTICAL COMPOSITIONS CONTAINING THEM” (Dongbu Hannong Chemical Co., Ltd., priority 1999, dated 2001).

Each structure is given as a SMILES string.

A short description of this data set: Acute oral toxicity test in rats. The conditions noted are these: rat, in vivo, single oral dose in 0.5% methyl cellulose, read-out: lethal dose (LD50) for oral administration. On the procedure: In this test six-week old SPF SD rats were used with two rats assigned to each group. The compounds of examples 1, 2, 3, 5, 7, 8, 9, 10, 13, 14, 15, 19, 22, 23, 24, 25, 26, 28, 29, 30, 31, 32, 33, 34, 35, 36, 37, 38, 39, 40, 41, 44, 46, 47, 48, 49, 51, 52, 57, 58, 60, 62, 64, 67, 68, 69, 71 and 72 were suspended in 0.5% methyl cellulose, respectively, and administered orally at a single dose of 1 g/kg using a ball-tipped needle. The dosing volume was 10 ml/kg. […] All survivors at the end of the observation period underwent laparotomy under ether anesthesia and the blood samples were taken from the abdominal aorta for hematological tests and biochemical analysis. After sacrificing the animals, autopsy was performed for macroscopic observation of the organs and tissues. Tissue samples of vital organs from macroscopic legion were removed and fixed in 10% neutral buffered formalin solution, then processed by standard procedures for histopathology and examined under light microscope. There were no significant changes in clinical symptoms, body weight and mortalities. Also in hematology, serum chemistry parameters and macroscopic observation, no drug-related changes were observed.
`COC(OC)[C@]1(C)Oc2ccc([N+](=O)[O-])cc2[C@@H](NC(=NC#N)NCc2ccccc2)[C@@H]1O` [Example 23, (2R, 3S, 4R)-N''-cyano-N-(6-nitro-3,4-dihydro-3-hydroxy-2-methyl-2-dimethoxymethyl-2H-benzopyran-4-yl)-N'-benzylguanidine]: the LD50 is greater than 1000 mg/kg.
To `COC(OC)[C@@]1(C)Oc2ccc([N+](=O)[O-])cc2[C@@H](NC(=NC#N)Nc2cccc(Cl)c2)[C@@H]1O` [Example 13, (2S, 3S, 4R)-N''-cyano-N-(6-nitro-3,4-dihydro-3-hydroxy-2-methyl-2-dimethoxymethyl-2H-benzopyran-4-yl)-N'-(3-chlorophenyl)guanidine] belongs greater than 1000 mg/kg.
The result for `COC(OC)[C@@]1(C)Oc2ccc([N+](=O)[O-])cc2[C@@H](NC(=NC#N)NCc2ccccc2Cl)[C@@H]1O` [Example 37, (2S, 3S, 4R)-N''-cyano-N-(6-nitro-3,4-dihydro-3-hydroxy-2-methyl-2-dimethoxymethyl-2H-benzopyran-4-yl)-N'-(2-chlorobenzyl)guanidine] reads greater than 1000 mg/kg; that for `COc1ccc(NC(=NC#N)N[C@@H]2c3cc([N+](=O)[O-])ccc3O[C@@](C)(C(OC)OC)[C@H]2O)cc1` [Example 9, (2R, 3S, 4R)-N''-cyano-N-(6-nitro-3,4-dihydro-3-hydroxy-2-methyl-2-dimethoxymethyl-2H-benzopyran-4-yl)-N'-(4-methoxyphenyl) guanidine], greater than 1000 mg/kg.
Consider `C[C@]1(C2OCCCO2)Oc2ccc([N+](=O)[O-])cc2[C@@H](NC(=NC#N)NCc2ccccc2)[C@@H]1O` [Example 62, (2S, 3S, 4R) -N''-cyano-N-(6-nitro-3,4-dihydro-3-hydroxy-2-methyl-2-([1,3]dioxan-2-yl)-2H-benzopyran-4-yl)-N'-benzylguanidine], for which the LD50 is greater than 1000 mg/kg.
On to `COc1ccc(CNC(=NC#N)N[C@@H]2c3cc(N)ccc3O[C@](C)(C(OC)OC)[C@H]2O)cc1` [Example 51, (2S,3S,4R)-N''-cyano-N-(6-amino-3,4-dihydro-3-hydroxy-2-methyl-2-dimethoxymethyl-2H-benzopyran-4-yl)-N'-(4-methoxybenzyl) guanidine], for which the LD50 is greater than 1000 mg/kg.
Consider `C[C@]1(CO)Oc2ccc([N+](=O)[O-])cc2[C@@H](NC(=NC#N)Nc2ccc(Cl)cc2)[C@@H]1O` [Example 29, (2R, 3S, 4R)-N''-cyano-N-(6-nitro-3,4-dihydro-3-hydroxy-2-methyl-2-hydroxymethyl-2H-benzopyran-4-yl)-N'-(4-chlorophenyl)guanidine], for which the LD50 was greater than 1000 mg/kg.
To `COC(OC)[C@@]1(C)Oc2ccc(Br)cc2[C@@H](NC(=NC#N)NCc2ccccc2)[C@@H]1O` [Example 47, (2S, 3S, 4R)-N''-cyano-N-(6-bromo-3,4-dihydro-3-hydroxy-2-methyl-2-dimethoxymethyl-2H-benzopyran-4-yl)-N'-benzylguanidine] belongs greater than 1000 mg/kg; to `COC(OC)[C@@]1(C)Oc2c(N)cccc2[C@@H](NC(=NC#N)NCc2ccccc2)[C@@H]1O` [Example 71, (2S, 3S, 4R)-N''-cyano-N-(8-amino-3,4-dihydro-3-hydroxy-2-methyl-2-dimthoxymethyl-2H-benzopyran-4-yl)-N'-benzylguanidine], greater than 1000 mg/kg.
To `COC(OC)[C@]1(C)Oc2ccc([N+](=O)[O-])cc2[C@H](NC(=NC#N)Nc2ccc([N+](=O)[O-])cc2)[C@H]1O` [Example 5, (2R, 3R, 4S)-N''-cyano-N-(6-nitro-3,4-dihydro-3-hydroxy-2-methyl-2-dimethoxymethyl-2H-benzopyran-4-yl)-N'-(4-nitrophenyl)guanidine] belongs greater than 1000 mg/kg; to `COC[C@@]1(C)Oc2ccc([N+](=O)[O-])cc2[C@H](NC(=NC#N)Nc2ccc(Cl)cc2)[C@H]1O` [Example 30, (2R, 3R, 4S)-N''-cyano-N-(6-nitro-3,4-dihydro-3-hydroxy-2-methyl-2-methoxymethyl-2H-benzopyran-4-yl)-N'-(4-chlorophenyl)guanidine], greater than 1000 mg/kg; to `C[C@]1(C2OCCO2)Oc2ccc([N+](=O)[O-])cc2[C@@H](NC(=NC#N)NCc2ccccc2)[C@@H]1O` [Example 60, (2S, 3S, 4R)-N''-cyano-N-(6-nitro-3,4-dihydro-3-hydroxy-2-methyl-2-([1,3]dioxolan-2-yl)-2H-benzopyran-4-yl)-N'-benzylguanidine], greater than 1000 mg/kg.
Take `COC(OC)[C@@]1(C)Oc2ccc(N)cc2[C@H](/N=C(\NC#N)NCc2ccccc2)[C@H]1O` [Example 57, (2S, 3R, 4S)-N''-cyano-N-(6-amino-3,4-dihydro-3-hydroxy-2-methyl-2-dimethoxymethyl-2H-benzopyran-4-yl)-N'-benzylguanidine]: the LD50 is greater than 1000 mg/kg.
Consider `COC(OC)[C@@]1(C)Oc2ccc([N+](=O)[O-])cc2[C@@H](NC(=NC#N)Nc2ccccc2Cl)[C@@H]1O` [Example 33, (2S, 3S, 4R)-N''-cyano-N-(6-nitro-3,4-dihydro-3-hydroxy-2-methyl-2-dimethoxymethyl-2H-benzopyran-4-yl)-N'-(2-chlorophenyl)guanidine], for which the LD50 was greater than 1000 mg/kg.
The result for `COC(OC)[C@]1(C)Oc2ccc([N+](=O)[O-])cc2[C@@H](NC(=NC#N)Nc2ccc(C)cc2)[C@@H]1O` [Example 19, (2R, 3S, 4R)-N''-cyano-N-(6-nitro-3,4-dihydro-3-hydroxy-2-methyl-2-dimethoxymethyl-2H-benzopyran-4-yl)-N'-(4-methylphenyl)guanidine] reads greater than 1000 mg/kg; that for `COC(OC)[C@]1(C)Oc2ccc(N)cc2[C@H](NC(=NC#N)NCc2ccccc2)[C@H]1O` [Example 58, (2R, 3R, 4S)-N''-cyano-N-(6-amino-3,4-dihydro-3-hydroxy-2-methyl-2-dimethoxymethyl-2H-benzopyran-4-yl)-N'-benzylguanidine], greater than 1000 mg/kg.
Turning to `COC(OC)[C@@]1(C)Oc2ccc([N+](=O)[O-])cc2[C@H](NC(=NC#N)Nc2ccccc2C(F)(F)F)[C@H]1O` [Example 34, (2S, 3R, 4S)-N''-cyano-N-(6-nitro-3,4-dihydro-3-hydroxy-2-methyl-2-dimethoxymethyl-2H-benzopyran-4-yl)-N'-(2-trifluoromethylphenyl)guanidine], the LD50 was greater than 1000 mg/kg.
To `COC[C@@]1(C)Oc2ccc([N+](=O)[O-])cc2[C@@H](NC(=NC#N)Nc2ccc(Cl)cc2)[C@@H]1O` [Example 31, (2R, 3S, 4R)-N''-cyano-N-(6-nitro-3,4-dihydro-3-hydroxy-2-methyl-2-methoxymethyl-2H-benzopyran-4-yl)-N'-(4-chlorophenyl)guanidine] belongs greater than 1000 mg/kg; to `COC(OC)[C@]1(C)C=C(NC(=NC#N)NCc2ccccc2)c2cc([N+](=O)[O-])ccc2O1` [Example 39, (2S)-N''-cyano-N-(6-nitro-2-methyl-2-dimethoxymethyl-2H-benzopyran-4-yl)-N'-benzylguanidine], greater than 1000 mg/kg; to `COC(OC)[C@@]1(C)Oc2ccc([N+](=O)[O-])cc2[C@H](NC(=NC#N)NCc2ccccc2Cl)[C@H]1O` [Example 36, (2S, 3R, 4S)-N''-cyano-N-(6 - nitro-3,4-dihydro-3-hydroxy-2-methyl-2-dimethoxymethyl-2H-benzopyran-4-yl)-N'-(2-chlorobenzyl)guanidine], greater than 1000 mg/kg.
